According to patent US12649725B2 (Worcester Polytechnic Institute, priority 2020, dated 2026):
Like-named read-outs stand apart in the source and are kept apart here.

How the values were obtained:
[1] = tested on: L5178Y cells; test: Cytotoxicity assay (CellTiter-Glo) in L5178Y cells; format: cell-based; settings: 48 hours post drug incubation, cell viability by CellTiter-Glo, triplicate
Protocol: (§1) Jurkat and L5178Y cells were cultured in RPMI 1640 (ATCC), HL60 cells were cultured in Iscove's Modified Dulbecco's Medium (IMDM, ATCC), KB and MCF7 cells were cultured in Eagles Minimum Essential Medium (EMEM, ATCC), and SKOV3 cells in McCoy's 5a Medium (ATCC) supplemented with 10% Heat Inactivated Fetal Bovine Serum (FBS), and Penicillin and Streptomycin (P/S) at 37° C. in a 5% CO2 incubator.
(§2) Proliferating cells were seeded at approximately 20×10^3 cells per 50 μL per well into 96 well plates using a MultiFlo FX multi-mode dispenser (BioTek). On reaching ≈40% cell density, the cells were then incubated with varying concentrations (195 nM to 200 μM final) of test samples using a Biomek FXP Automated Workstation (Beckman Coulter). 48 hours post drug incubation, cell viability was determined using Promega's CellTiter-Glo Luminescent Cell Viability Assay according to the manufacturer's protocol on a plate reader (EnVision from PerkinElmer) in Luminescence mode. In each experiment, each unique condition (i.e., different sample type and concentration) was tested in triplicate. […] IC50 values for each treatment were calculated using Graph-Pad Prism 8.0 Software.

[2] = tested on: HL60 cells; test: Cytotoxicity assay (CellTiter-Glo) in HL60 cells; format: cell-based; settings: 48 hours post drug incubation, cell viability by CellTiter-Glo, triplicate
Protocol: as §1, §2

[3] = tested on: KB cells; test: Cytotoxicity assay (CellTiter-Glo) in KB cells; format: cell-based; settings: 48 hours post drug incubation, cell viability by CellTiter-Glo, triplicate, read-out: Chromenone cytotoxicity IC50, KB
Protocol: as §1
(§3) Proliferating cells were seeded at approximately 20×10^3 cells per 50 μL per well into 96 well plates using a MultiFlo FX multi-mode dispenser (BioTek). On reaching ≈40% cell density, the cells were then incubated with varying concentrations (195 nM to 200 μM final) of test samples using a Biomek FXP Automated Workstation (Beckman Coulter). 48 hours post drug incubation, cell viability was determined using Promega's CellTiter-Glo Luminescent Cell Viability Assay according to the manufacturer's protocol on a plate reader (EnVision from PerkinElmer) in Luminescence mode. In each experiment, each unique condition (i.e., different sample type and concentration) was tested in triplicate. The percentage of test sample induced toxicity was calculated with respect to DMSO treated cells and graphed to give dose response curves. IC50 values for each treatment were calculated using Graph-Pad Prism 8.0 Software.

[4] = tested on: Jurkat cells; test: Cytotoxicity assay (CellTiter-Glo) in Jurkat cells; format: cell-based; settings: for Cytotoxicity in Jurkat screening (in words): cytotoxicity screening in Jurkat cell lines, FIG. 20
Protocol: as §1, §2

[5] = Cytotoxicity assay (CellTiter-Glo) in L5178Y cells; format: cell-based; settings: mouse, 48 hours post drug incubation, cell viability by CellTiter-Glo, triplicate, read-out: Chromenone cytotoxicity IC50, L5178Y
Protocol: as §1, §2

[6] = Cytotoxicity assay (CellTiter-Glo) in KB cells; format: cell-based; settings: human, 48 hours post drug incubation, cell viability by CellTiter-Glo, triplicate, read-out: Chromenone cytotoxicity IC50, KB
Protocol: as §1, §3

[7] = Cytotoxicity assay (CellTiter-Glo) in HL60 cells; format: cell-based; settings: human, 48 hours post drug incubation, cell viability by CellTiter-Glo, triplicate, read-out: Chromenone cytotoxicity IC50, HL60
Protocol: as §1, §2

[8] = Cytotoxicity assay (CellTiter-Glo) in Jurkat cells; format: cell-based; settings: human; Jurkat cells, 48 hours post drug incubation, cell viability by CellTiter-Glo, triplicate; read-out: Chromenone cytotoxicity IC50, Jurkat
Protocol: as §1, §2

[9] = tested on: L5178Y cells; settings: read-out: Cytotoxicity IC50, L5178Y (natural product comparator), other cells 'Not available'; cited from earlier work
[10] = tested on: KB cells; settings: read-out: Cytotoxicity IC50, KB (natural product comparator), other cells 'Not available'; cited from earlier work
[11] = tested on: Jurkat cells; settings: comparator natural product, other cells 'Not available', read-out: Cytotoxicity IC50, Jurkat (natural product comparator); cited from earlier work
[12] = tested on: HL60 cells; settings: comparator natural product, other cells 'Not available', read-out: Cytotoxicity IC50, HL60 (natural product comparator); cited from earlier work

Question: Which results are given for “3-Acetyl-5-hydroxy-2-methyl-4H-1-benzopyran-4-one Dimer [Compound 43]”?
Answer: IC50 ([1]; read-out: Chromenone cytotoxicity IC50, L5178Y): > 50 µM; IC50 ([2]; read-out: Chromenone cytotoxicity IC50, HL60): > 50 µM; IC50 [3]: > 50 µM; IC50 ([4]; Jurkat cells, 48 hours post drug incubation, cell viability by CellTiter-Glo, triplicate, read-out: Chromenone cytotoxicity IC50, Jurkat): 39 ± 1.1 µM

Question: With COC(=O)C(C)(C)c1cc(=O)c2c(O)ccc(-c3ccc(O)c4c(=O)cc(C(C)(C)C(=O)OC)oc34)c2o1 [Compound 28c, Dimethyl 2,2′-(5,5′-Dihydroxy-4,4′-dioxo-4H,4′H-[8,8′-bichromene]-2,2′-diyl)bis(2-methylpropanoate)] as the molecule, how does the “Chromenone cytotoxicity IC50, L5178Y” value [1] read?
Answer: low micromolar range

Question: And the IC50 at 48 h [5]?
Answer: 23 µM

Question: What about the “Chromenone cytotoxicity IC50, HL60” value [2] of the same molecule?
Answer: low micromolar range

Question: And the IC50 at 48 h [6]?
Answer: > 50 µM

Question: And the “Cytotoxicity in Jurkat screening (in words)” value (shortened to “Cytotoxicity … (in words)”) [4]?
Answer: highest levels of cytotoxicity

Question: With O=c1cc(C2CCCO2)oc2c(-c3ccc(O)c4c(=O)cc(C5CCCO5)oc34)ccc(O)c12 (stereo not shown) [Compound 28e, 5,5′-Dihydroxy-2,2′-bis(tetrahydrofuran-2-yl)-4H,4′H-[8,8′-bichromene]-4,4′-dione] as the molecule, how does the IC50 at 48 h [5] read?
Answer: > 50 µM

Question: What about the IC50 at 48 h [7] of the same molecule?
Answer: > 50 µM

Question: What about the IC50 at 48 h [6] of the same molecule?
Answer: > 50 µM

Question: What about the “Cytotoxicity … (in words)” value [4] of the same molecule?
Answer: highest levels of cytotoxicity

Question: For COC(=O)C(C)(C)c1cc(=O)c2c(OC)c(-c3ccc4oc(C(C)(C)C(=O)OC)cc(=O)c4c3OC)ccc2o1 [Compound 35c, Dimethyl 2,2′-(5,5′-Dimethoxy-4,4′-dioxo-4H,4′H-[6,6′-bichromene]-2,2′-diyl)bis(2-methylpropanoate)], which IC50 at 48 h [6] is on record?
Answer: 41 ± 1.1 µM

Question: What about the “Cytotoxicity … (in words)” value [4] of the same molecule?
Answer: highest levels of cytotoxicity

Question: Which results are given for COC(=O)C(C)(C)c1cc(=O)c2c(OC)ccc(-c3ccc(OC)c4c(=O)cc(C(C)(C)C(=O)OC)oc34)c2o1 [Compound 39c, Dimethyl 2,2′-(5,5′-Dimethoxy-4,4′-dioxo-4H,4′H-[8,8′-bichromene]-2,2′-diyl)bis(2-methylpropanoate)]?
Answer: Chromenone cytotoxicity IC50, L5178Y [1]: low micromolar range; Chromenone cytotoxicity IC50, HL60 [2]: low micromolar range; IC50 at 48 h [7]: 24 µM; Cytotoxicity in Jurkat screening (in words) [4]: highest levels of cytotoxicity

Question: What does the source list for COc1ccc(-c2ccc(OC)c3c(=O)c(C(C)=O)c(C)oc23)c2oc(C)c(C(C)=O)c(=O)c12 [Compound 42, 3,3′-Diacetyl-5,5′-dimethoxy-2,2′-dimethyl-4H,4′H-[8,8′-bichromene]-4,4′-dione]?
Answer: IC50 at 48 h [5]: > 50 µM; IC50 at 48 h [6]: > 50 µM; IC50 at 48 h [8]: > 50 µM

Question: What does the source list for COc1ccc(-c2ccc(OC)c3c(=O)c(C(C)=O)c([C@@H](OC(C)=O)C(C)C)oc23)c2oc([C@@H](OC(C)=O)C(C)C)c(C(C)=O)c(=O)c12 [Compound 48c]?
Answer: IC50 at 48 h [7]: > 50 µM; IC50 at 48 h [6]: > 50 µM; IC50 at 48 h [8]: > 50 µM

Question: With Dicerandrol C as the molecule, how does the IC50 [9] read?
Answer: 10 µM

Question: For Phomoxanthone A, which IC50 [10] is on record?
Answer: 0.99 µM

Question: What about the IC50 [11] of the same molecule?
Answer: 0.5 µM

Question: What about the IC50 [9] of the same molecule?
Answer: 0.3 µM

Question: For Phomoxanthone B, which IC50 [10] is on record?
Answer: 4.1 µM

Question: For Versixanthone F, which IC50 [12] is on record?
Answer: 1 µM
